From patent US8999384B2, “Immediate release compositions of acid labile drugs” (priority 2010, dated 2015)

Assay: Acid neutralizing capacity of buffers: buffer added to basal SGF and titrated with excess 0.1N HCl for 1 hour
Format: physicochemical
Conditions: for initial rise in pH: at the buffer quantity required to neutralize the SGF (quantity stated per buffer); for pH upon addition of excess acid for a period of 1 h: at the buffer quantity required to neutralize the SGF, 0.1N HCl at 0.5 ml/minute; for quantity of buffer required to neutralize the basal SGF: basal SGF: 9.6 ml of 0.1N HCl + 210 ml of water
Description: A number of buffers, both soluble and insoluble, were tested for their acid neutralizing capacity. Based on their acid neutralizing capacity, buffers, both individual and combination, were evaluated for their behavior at the excess secretion of acid. The technique involved consists of adding an excess dose of the buffer to a sample of artificial gastric juice. […] The model was simulated in vitro and the buffer was added to the basal SGF medium containing 9.6 ml of 0.1N HCl+210 ml of water and titrated with excess acid (0.1N HCl) at the rate of 0.5 ml/minute for a period of 1 hour (total volume=250 ml). The buffer(s) which maintained a pH above 6.0 at the excess secretion of acid was selected.

initial rise in pH	pH upon addition of excess acid for a period of 1 h	quantity of buffer required to neutralize the basal SGF	Structure (SMILES)
8	8	About 1000 mg	NC(CO)(CO)CO [Tromethamine]
7	7	About 80 mg	[Mg+2].[O-2] [Heavy Magnesium oxide]
